According to ChEMBL document CHEMBL4507284, “Data for DCP probe BI-1230” (2021):

How the values were obtained:
Conditions in all cases: Compound concentration 1000.0 nM
[1] = target: Mitogen-activated protein kinase kinase kinase 7 (Homo sapiens) (UniProt O43318)
[2] = target: Phosphatidylinositol 3-kinase catalytic subunit type 3 (Homo sapiens) (UniProt Q8NEB9)
[3] = target: Ribosomal protein S6 kinase alpha-2 (Homo sapiens) (UniProt Q15349)
[4] = system: Tyrosine-protein kinase ABL1 (Homo sapiens), P00519 [F317I]
[5] = target: Homeodomain-interacting protein kinase 1 (Homo sapiens) (UniProt Q86Z02)
[6] = target: Tyrosine-protein kinase CSK (Homo sapiens) (UniProt P41240)
[7] = target: Ribosomal protein S6 kinase beta-1 (Homo sapiens) (UniProt P23443)
[8] = target: Fibroblast growth factor receptor 3 (Homo sapiens) (UniProt P22607)
[9] = target: Vascular endothelial growth factor receptor 1 (Homo sapiens) (UniProt P17948)
[10] = target: Cyclin-dependent kinase 4 (Homo sapiens) (UniProt P11802)
[11] = system: Phosphatidylinositol 4,5-bisphosphate 3-kinase catalytic subunit alpha isoform (Homo sapiens), P42336 [H1047L]
[12] = target: Serine/threonine-protein kinase 17A (Homo sapiens) (UniProt Q9UEE5)
[13] = target: Serine/threonine-protein kinase 35 (Homo sapiens) (UniProt Q8TDR2)
[14] = target: Cyclin-dependent kinase-like 1 (Homo sapiens) (UniProt Q00532)
[15] = target: Serine/threonine-protein kinase MAK (Homo sapiens) (UniProt P20794)
[16] = target: Ephrin type-B receptor 2 (Homo sapiens) (UniProt P29323)
[17] = target: cAMP-dependent protein kinase catalytic subunit alpha (Homo sapiens) (UniProt P17612)
[18] = target: Calcium/calmodulin-dependent protein kinase type 1D (Homo sapiens) (UniProt Q8IU85)
[19] = target: Calcium/calmodulin-dependent protein kinase type 1 (Homo sapiens) (UniProt Q14012)
[20] = system: ALK tyrosine kinase receptor (Homo sapiens), Q9UM73 [L1196M]
[21] = system: Receptor-type tyrosine-protein kinase FLT3 (Homo sapiens), P36888 [R834Q]
[22] = system: Phosphatidylinositol 4,5-bisphosphate 3-kinase catalytic subunit alpha isoform (Homo sapiens), P42336 [I800L]
[23] = target: Interleukin-1 receptor-associated kinase 1 (Homo sapiens) (UniProt P51617)
[24] = target: Casein kinase II subunit alpha (Homo sapiens) (UniProt P68400)
[25] = target: SRSF protein kinase 2 (Homo sapiens) (UniProt P78362)
[26] = target: Serine/threonine-protein kinase PAK 3 (Homo sapiens) (UniProt O75914)
[27] = target: Cyclin-G-associated kinase (Homo sapiens) (UniProt O14976)
[28] = target: Serine/threonine-protein kinase RIO2 (Homo sapiens) (UniProt Q9BVS4)
[29] = target: Mitogen-activated protein kinase 10 (Homo sapiens) (UniProt P53779)
[30] = target: Ephrin type-B receptor 4 (Homo sapiens) (UniProt P54760)
[31] = target: Protein kinase C theta type (Homo sapiens) (UniProt Q04759)
[32] = target: Tyrosine-protein kinase TXK (Homo sapiens) (UniProt P42681)
[33] = target: Serine/threonine-protein kinase TNNI3K (Homo sapiens) (UniProt Q59H18)
[34] = target: Mitogen-activated protein kinase kinase kinase 12 (Homo sapiens) (UniProt Q12852)
[35] = system: Receptor-type tyrosine-protein kinase FLT3 (Homo sapiens), P36888 [UNDEFINED MUTATION]
[36] = target: Cyclin-dependent kinase 11B (Homo sapiens) (UniProt P21127)
[37] = target: Serine/threonine-protein kinase pim-1 (Homo sapiens) (UniProt P11309)
[38] = target: Mitogen-activated protein kinase kinase kinase 1 (Homo sapiens) (UniProt Q13233)
[39] = target: Serine/threonine-protein kinase Nek6 (Homo sapiens) (UniProt Q9HC98)
[40] = target: Serine/threonine-protein kinase SIK2 (Homo sapiens) (UniProt Q9H0K1)
[41] = target: Calcium/calmodulin-dependent protein kinase type II subunit delta (Homo sapiens) (UniProt Q13557)
[42] = target: Phosphorylase b kinase regulatory subunit alpha, liver isoform (Homo sapiens) (UniProt P46019)
[43] = target: Dual specificity protein kinase CLK2 (Homo sapiens) (UniProt P49760)
[44] = target: LIM domain kinase 1 (Homo sapiens) (UniProt P53667)
[45] = target: Ankyrin repeat and protein kinase domain-containing protein 1 (Homo sapiens) (UniProt Q8NFD2)

Measured: residual activity

Chain of Serine/threonine-protein kinase 17A (Homo sapiens) (Q9UEE5 whole entry): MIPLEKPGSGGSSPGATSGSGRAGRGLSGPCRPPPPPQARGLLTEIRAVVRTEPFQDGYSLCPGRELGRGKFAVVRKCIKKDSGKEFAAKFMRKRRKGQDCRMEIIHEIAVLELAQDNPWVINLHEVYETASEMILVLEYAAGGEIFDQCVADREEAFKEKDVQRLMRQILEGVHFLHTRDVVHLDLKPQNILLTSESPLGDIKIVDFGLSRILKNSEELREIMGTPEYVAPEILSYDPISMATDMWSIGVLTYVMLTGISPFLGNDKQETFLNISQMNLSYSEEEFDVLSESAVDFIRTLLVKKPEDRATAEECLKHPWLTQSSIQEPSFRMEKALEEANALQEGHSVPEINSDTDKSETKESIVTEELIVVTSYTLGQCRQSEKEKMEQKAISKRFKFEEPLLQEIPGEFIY
Chain of Ephrin type-B receptor 2 (Homo sapiens) (P29323 whole entry): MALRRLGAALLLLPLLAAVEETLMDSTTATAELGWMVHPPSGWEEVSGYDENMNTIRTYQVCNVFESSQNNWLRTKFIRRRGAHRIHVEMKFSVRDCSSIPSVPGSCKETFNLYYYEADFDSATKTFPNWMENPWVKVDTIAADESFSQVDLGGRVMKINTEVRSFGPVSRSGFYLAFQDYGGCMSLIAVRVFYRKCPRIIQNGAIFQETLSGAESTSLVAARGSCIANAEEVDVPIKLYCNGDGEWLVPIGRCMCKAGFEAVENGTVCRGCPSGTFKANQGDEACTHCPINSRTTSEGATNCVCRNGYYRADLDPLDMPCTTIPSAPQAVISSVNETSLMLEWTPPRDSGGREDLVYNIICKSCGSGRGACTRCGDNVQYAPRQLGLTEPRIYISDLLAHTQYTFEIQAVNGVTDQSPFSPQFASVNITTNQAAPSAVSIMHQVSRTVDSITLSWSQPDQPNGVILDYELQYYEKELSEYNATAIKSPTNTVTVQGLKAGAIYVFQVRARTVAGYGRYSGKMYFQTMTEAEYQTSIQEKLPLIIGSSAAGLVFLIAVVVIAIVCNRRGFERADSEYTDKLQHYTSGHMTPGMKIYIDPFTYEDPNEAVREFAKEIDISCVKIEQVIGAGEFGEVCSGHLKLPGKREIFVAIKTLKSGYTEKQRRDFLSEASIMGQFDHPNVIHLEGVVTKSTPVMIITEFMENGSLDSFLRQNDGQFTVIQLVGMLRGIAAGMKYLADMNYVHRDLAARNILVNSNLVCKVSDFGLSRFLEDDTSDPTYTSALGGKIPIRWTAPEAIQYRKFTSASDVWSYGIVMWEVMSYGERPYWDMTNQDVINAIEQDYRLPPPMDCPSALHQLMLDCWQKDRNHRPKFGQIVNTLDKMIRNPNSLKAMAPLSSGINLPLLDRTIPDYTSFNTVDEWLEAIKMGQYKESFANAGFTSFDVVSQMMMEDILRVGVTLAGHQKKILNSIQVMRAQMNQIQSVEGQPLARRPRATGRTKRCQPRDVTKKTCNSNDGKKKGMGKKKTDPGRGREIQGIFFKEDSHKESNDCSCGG
Chain of Serine/threonine-protein kinase PAK 3 (Homo sapiens) (O75914 whole entry, looked up): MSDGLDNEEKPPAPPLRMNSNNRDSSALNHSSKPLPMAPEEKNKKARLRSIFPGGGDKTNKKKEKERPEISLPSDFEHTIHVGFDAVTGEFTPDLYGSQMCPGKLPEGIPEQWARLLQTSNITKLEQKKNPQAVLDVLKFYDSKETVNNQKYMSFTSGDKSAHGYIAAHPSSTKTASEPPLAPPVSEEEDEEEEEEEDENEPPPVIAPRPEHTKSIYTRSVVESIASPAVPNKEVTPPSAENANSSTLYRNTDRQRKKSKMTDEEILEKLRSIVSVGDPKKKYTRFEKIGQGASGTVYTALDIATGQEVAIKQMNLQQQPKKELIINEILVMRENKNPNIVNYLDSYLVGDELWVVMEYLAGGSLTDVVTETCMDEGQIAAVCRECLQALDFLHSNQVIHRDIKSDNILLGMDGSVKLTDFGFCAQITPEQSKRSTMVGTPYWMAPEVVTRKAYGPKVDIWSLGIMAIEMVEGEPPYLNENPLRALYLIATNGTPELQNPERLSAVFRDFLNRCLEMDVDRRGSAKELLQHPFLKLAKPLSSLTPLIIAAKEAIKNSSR
Chain of Calcium/calmodulin-dependent protein kinase type 1 (Homo sapiens) (Q14012 whole entry, looked up): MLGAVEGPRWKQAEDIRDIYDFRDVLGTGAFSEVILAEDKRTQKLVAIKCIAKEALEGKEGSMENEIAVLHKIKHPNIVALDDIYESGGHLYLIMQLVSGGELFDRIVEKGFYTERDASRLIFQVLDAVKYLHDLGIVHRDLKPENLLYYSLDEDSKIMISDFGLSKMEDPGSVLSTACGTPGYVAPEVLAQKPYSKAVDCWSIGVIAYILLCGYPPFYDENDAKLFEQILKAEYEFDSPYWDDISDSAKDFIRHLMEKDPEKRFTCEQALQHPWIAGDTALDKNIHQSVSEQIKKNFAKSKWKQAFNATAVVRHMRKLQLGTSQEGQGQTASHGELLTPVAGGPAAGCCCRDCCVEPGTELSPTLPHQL
Chain of Cyclin-dependent kinase 11B (Homo sapiens) (P21127 whole entry): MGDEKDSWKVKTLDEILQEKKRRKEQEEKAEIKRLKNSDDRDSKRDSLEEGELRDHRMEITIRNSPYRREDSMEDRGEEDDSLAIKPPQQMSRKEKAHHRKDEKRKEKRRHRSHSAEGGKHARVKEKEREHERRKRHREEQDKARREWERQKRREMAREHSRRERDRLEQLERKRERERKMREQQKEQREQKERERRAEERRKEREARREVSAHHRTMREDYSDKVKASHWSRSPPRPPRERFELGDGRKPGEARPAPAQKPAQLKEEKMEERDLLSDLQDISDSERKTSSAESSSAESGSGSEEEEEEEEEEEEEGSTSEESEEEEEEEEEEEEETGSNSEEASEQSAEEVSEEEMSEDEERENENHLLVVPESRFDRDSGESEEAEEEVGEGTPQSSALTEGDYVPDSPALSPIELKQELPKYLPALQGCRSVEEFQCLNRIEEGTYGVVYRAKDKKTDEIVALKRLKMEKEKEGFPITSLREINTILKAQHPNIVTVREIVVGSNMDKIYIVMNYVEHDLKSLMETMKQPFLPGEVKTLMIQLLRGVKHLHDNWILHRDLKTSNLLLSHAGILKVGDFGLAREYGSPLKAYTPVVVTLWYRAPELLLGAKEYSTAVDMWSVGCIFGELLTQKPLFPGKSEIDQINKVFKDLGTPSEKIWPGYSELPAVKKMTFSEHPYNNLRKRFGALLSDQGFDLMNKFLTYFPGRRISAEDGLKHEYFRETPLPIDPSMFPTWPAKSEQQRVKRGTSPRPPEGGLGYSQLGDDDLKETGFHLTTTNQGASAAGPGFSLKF
Chain of Cyclin-G-associated kinase (Homo sapiens) (O14976 whole entry): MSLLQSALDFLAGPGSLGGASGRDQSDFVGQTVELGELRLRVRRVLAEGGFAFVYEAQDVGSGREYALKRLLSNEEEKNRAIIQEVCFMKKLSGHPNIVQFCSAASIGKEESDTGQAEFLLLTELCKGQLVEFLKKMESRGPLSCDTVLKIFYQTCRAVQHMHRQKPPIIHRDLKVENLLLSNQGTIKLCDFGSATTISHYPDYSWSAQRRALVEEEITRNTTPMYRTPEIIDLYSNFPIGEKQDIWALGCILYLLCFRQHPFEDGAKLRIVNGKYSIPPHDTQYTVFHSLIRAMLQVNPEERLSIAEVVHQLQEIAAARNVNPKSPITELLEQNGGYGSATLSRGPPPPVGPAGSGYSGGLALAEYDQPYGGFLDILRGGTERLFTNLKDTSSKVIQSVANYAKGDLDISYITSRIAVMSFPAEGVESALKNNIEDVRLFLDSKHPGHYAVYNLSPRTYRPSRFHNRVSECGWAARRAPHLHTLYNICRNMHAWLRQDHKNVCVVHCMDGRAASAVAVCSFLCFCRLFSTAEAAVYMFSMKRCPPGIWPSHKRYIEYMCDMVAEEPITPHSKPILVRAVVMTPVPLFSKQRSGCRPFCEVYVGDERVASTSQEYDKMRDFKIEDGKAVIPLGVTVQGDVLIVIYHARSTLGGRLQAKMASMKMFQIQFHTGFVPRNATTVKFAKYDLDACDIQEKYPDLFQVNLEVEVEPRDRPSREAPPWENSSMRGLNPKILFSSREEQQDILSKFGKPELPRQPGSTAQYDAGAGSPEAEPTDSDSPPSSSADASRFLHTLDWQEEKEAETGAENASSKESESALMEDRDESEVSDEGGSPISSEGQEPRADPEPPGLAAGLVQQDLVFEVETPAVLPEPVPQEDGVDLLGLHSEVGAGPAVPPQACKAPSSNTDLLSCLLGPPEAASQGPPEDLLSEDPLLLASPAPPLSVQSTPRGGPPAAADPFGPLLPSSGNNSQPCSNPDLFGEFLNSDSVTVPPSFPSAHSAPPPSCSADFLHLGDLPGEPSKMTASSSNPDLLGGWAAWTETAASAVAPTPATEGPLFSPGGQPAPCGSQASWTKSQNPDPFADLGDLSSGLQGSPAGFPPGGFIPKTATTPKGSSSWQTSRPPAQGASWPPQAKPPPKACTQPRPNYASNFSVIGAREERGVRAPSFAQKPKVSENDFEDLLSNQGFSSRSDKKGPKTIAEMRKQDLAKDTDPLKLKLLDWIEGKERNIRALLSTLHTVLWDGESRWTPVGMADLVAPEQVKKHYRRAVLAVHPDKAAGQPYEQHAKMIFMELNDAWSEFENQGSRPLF
Chain of Tyrosine-protein kinase TXK (Homo sapiens) (P42681 whole entry): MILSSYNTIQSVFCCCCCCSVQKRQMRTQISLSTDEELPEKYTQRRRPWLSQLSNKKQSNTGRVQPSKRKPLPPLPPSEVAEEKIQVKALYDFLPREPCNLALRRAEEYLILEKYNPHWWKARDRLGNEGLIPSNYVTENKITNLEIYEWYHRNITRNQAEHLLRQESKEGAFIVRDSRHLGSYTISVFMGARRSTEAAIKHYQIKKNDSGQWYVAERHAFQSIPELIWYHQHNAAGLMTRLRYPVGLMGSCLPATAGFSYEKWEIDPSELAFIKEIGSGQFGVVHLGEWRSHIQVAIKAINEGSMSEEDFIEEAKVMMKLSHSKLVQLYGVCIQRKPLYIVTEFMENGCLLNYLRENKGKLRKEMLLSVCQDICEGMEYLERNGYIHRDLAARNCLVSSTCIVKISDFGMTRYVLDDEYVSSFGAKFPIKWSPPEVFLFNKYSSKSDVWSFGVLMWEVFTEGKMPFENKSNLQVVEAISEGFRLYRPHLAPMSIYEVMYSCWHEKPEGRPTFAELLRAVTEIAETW

O=C(N[C@H]1CCCCC/C=C\C2C[C@@]2(C(=O)O)NC(=O)[C@@H]2C[C@@H](Oc3ccncc3)CN2C1=O)OC1CCCC1 (stereo not given in full) [BI 1675]
inactive: [1] 77% | [2] 100% | [3] 99% | [4] 96% | [5] 86% | [6] 96% | [7] 89% | [8] 88% | [9] 100% | [10] 89% | [11] 100% | [12] 100% | [13] 100% | [14] 100% | [15] 82% | [16] 91% | [17] 92% | [18] 94% | [19] 87% | [20] 100% | [21] 93% | [22] 100% | [23] 88% | [24] 83% | [25] 64% | [26] 88% | [27] 90% | [28] 100% | [29] 81% | [30] 100% | [31] 100% | [32] 87% | [33] 100% | [34] 100% | [35] 100% | [36] 100% | [37] 100% | [38] 84% | [39] 87% | [40] 100% | [41] 87% | [42] 100% | [43] 100% | [44] 92% | [45] 100%

COc1ccc2c(O[C@@H]3C[C@H]4C(=O)N[C@]5(C(=O)O)CC5/C=C\CCCCC[C@H](NC(=O)OC5CCCC5)C(=O)N4C3)cc(-c3csc(NC(=O)C(C)C)n3)nc2c1C (stereo not given in full) [BI 1230]
inactive: [1] 67% | [2] 100% | [3] 100% | [4] 76% | [5] 77% | [6] 100% | [7] 93% | [8] 100% | [9] 95% | [10] 88% | [11] 79% | [12] 99% | [13] 100% | [14] 99% | [15] 100% | [16] 98% | [17] 97% | [18] 100% | [19] 100% | [20] 97% | [21] 92% | [22] 65% | [23] 69% | [24] 81% | [25] 100% | [26] 100% | [27] 95% | [28] 100% | [29] 71% | [30] 100% | [31] 100% | [32] 86% | [33] 100% | [34] 92% | [35] 71% | [36] 99% | [37] 97% | [38] 82% | [39] 98% | [40] 100% | [41] 100% | [42] 100% | [43] 100% | [44] 100% | [45] 79%
